We go through two compounds from US20210063414A1, “METHODS FOR PREVENTING AND/OR TREATING BONE LOSS CONDITIONS BY MODULATING IRISIN” (Dana-Farber Cancer Institute, Inc., priority 2018, published 2021).

This experiment deals with sclerostin mRNA in MLO-Y4 cells. The experiment in a line: Sclerostin mRNA in MLO-Y4 cells, qRT-PCR. The following applies: MLO-Y4, inhibitor pre-treatment 10 minutes, irisin 16 hours. It is filed as cell-based, mouse. On the procedure:
Cells were stained with Hoechst 33342 and Eth-D1, and analyzed to determine the percentage of cell death. *: p<0.05, ***: p<0.001 vs 0.3 mM H2O2 treated condition. […] MLO-Y4 cells were seeded and incubated until 60% cell density. The cells were incubated with Freestyle293 medium for 4 hours and were treated with indicated concentrations of irisin for 16 hours. Sclerostin mRNA level was analyzed by qRT-PCR. Cyclophilin was used as a control house-keeping gene.
MLO-Y4 cells were incubated in serum free medium for 3 hours followed by treatment of indicated concentrations of irisin for indicated time (FIG. 6A), or followed by treatment of 0 or 10 nM irisin in the presence of indicated integrin inhibitors or their control peptide for 16 hours (FIG. 6B). Sclerostin mRNA level was analyzed by qPCR.
Certain materials and methods were used to generate the results described herein. For example, the data shown in FIG. 1A resulted from MLO-Y4 (an osteocyte-like cell line) cells treated with the indicated concentration of irisin and hydrogen peroxide for 4 hours. Cells were stained with Hoechst 33342 (ThermoFisher Scientific, catalog number H3570) and Eth-D1 (ThermoFisher Scientific, catalog number E1169) and analyzed to determine the percentage of cell death using ImageJ. The data shown in FIG. 2D resulted from MLO-Y4 incubated in serum free medium (FreeStyle™ 293 expression medium, ThermoFisher Scientific, catalog number 12338018) for 4 hours followed by treatment of indicated concentrations of irisin for 10 minutes. Cells were lysed to detect the indicated protein level using immunoblot analysis (Cell Signaling Technology, catalog numbers 3283S, 3285S, 8467S, 3553S, 9198S, and 9104S; Abcam, catalog number ab49900-100ul). The data shown in FIG. 3 resulted from 3T3-F442A cells incubated in serum free medium for 4 hours followed by treatment of indicated concentrations of irisin for 10 minutes. Cells were lysed by RIPA buffer to detect the indicated protein level using immunoblot analysis. The data shown in FIG. 4 were generated from 100 nM flag-tagged irisin (Enzo life sciences, catalog number ADI-908-307-3010) incubated with 5 nM of the indicated 6 his-tag integrins (R & D Systems Inc., catalog numbers 7064-AB-025, 5668-A4-050, 5438-A9-050, 6357-AB-050, and 6579-AV-025) in the presence of RGDS peptide (R & D Systems Inc., catalog number 3498/10) or its control peptide (Enzo Life Sciences, catalog Number BML-P701-0005) followed by immunoprecipitation using 6 his-tag beads (ThermoFisher Scientific, catalog number R901-01). Co-precipitated irisin was analyzed by immunoblot analysis against flag tag (Sigma Aldrich, catalog number A8592). The data shown in FIGS. 5A and 5B were generated from MLO-Y4 cells treated and analyzed as in the experiments used to generate the data shown in FIG. 2D, except that pre-treatment of 100 nM RGDS (FIG. 5A) or echistatin (R & D Systems Inc., catalog number 3202/100U) (FIG. 5B) for 10 minutes was performed before irisin treatment. The data shown in FIGS. 6A and 6B were generated from MLO-Y4 cells incubated in serum free medium for 3 hours followed by treatment of indicated time of 10 nM irisin for 16 hours. RNAs were extracted from the cells and the sclerostin mRNA level was analyzed by qPCR (FIG. 6A) or treated and analyzed as in (FIG. 6A), except that pre-treatment of 10 μM RGDS, RGDyK (Selleck, catalog number S7844), or echistatin was performed for 10 minutes before irisin treatment. […] Sclerostin mRNA level was analyzed by qPCR (FIG. 7A). […]

With `N=C(N)NCCC[C@@H]1NC(=O)[C@H](CCCCN)NC(=O)[C@@H](Cc2ccc(O)cc2)NC(=O)[C@H](CC(=O)O)NC(=O)CNC1=O` [cyclo RGDyK], the “effect of integrin inhibitor on irisin-induced sclerostin mRNA” value (from here on “effect of integrin inhibitor”) was “prevented sclerostin induction”. In addition, the “effect of integrin inhibitor” value (listed as RGDyK circular peptide) is recorded as “sensitive”.

Turning to “RGDS peptide: classical integrin competitive inhibitory peptide, commercially available form of the RGD peptide”, the “effect of integrin inhibitor” value is listed as “sensitive”. Besides, the “effect of integrin inhibitor” value (listed as RGD peptide) is given as “prevented sclerostin induction”.
